Measured values published in US20120251628A1, “COMPOSITIONS AND METHODS FOR TREATMENT OF CANCER” (priority 2011, published 2012).

Experiments:
[1] = tested on: CT26 colon carcinoma cells; experiment: Observation of necrosis in tumor tissues after treatment (tumor images); assay type: in vivo; settings: 10 mg/kg intraperitoneal; discolored at 24 hours after injection; BALB/c mice
Experimental: Seven-week-old, female, specific-pathogen-free (BALB/c) white mice (weight: approximately 20 g) purchased from ORIENTBIO Inc. (Seoul Korea) were subcutaneously injected with 2×10^6 of CT26 colon carcinoma cells per mouse. When the tumor size became 3 mm in diameter, the control group was injected with a phosphate buffered saline (PBS) solution with 5% dextrose while the experimental group was intraperitoneally injected with 100 μL of sodium meta arsenite at a concentration of 10 mg/kg with 5% dextrose. After injection, the measurements of the size of tumors (volume=πab^2/6, where a and b are diameters of tumors) by using the caliper once every two days and the images of the tumors were recorded for 15 days. While the discoloration of the tissues of the mice injected without sodium meta arsenite was not observed for a certain period of time, the central part of tumors in the tissues of the white mice injected with sodium meta arsenite became discolored at 24 hours after the injection of sodium meta arsenite. As time went by, it was observed that the tumors became discolored regardless of the injection of sodium meta arsenite.

[2] = tested on: α-tubulin; experiment: Western blot of total tubulin protein from HUVECs; assay type: cell-based, Human; settings: 5, 10, 20 and 50 uM, 24 and 48 hours, higher concentration
Experimental: (§1) To analyze the change in the overall expression of tubulin, the total amount of tubulin protein was kept to identify by western blotting. HUVECs were cultured in F25 culture flasks containing F-12K (Sigma) medium supplemented with 10% FBS and endothelial cell growth supplement (ECGS, E2759, Sigma). After cultivation for 24 hours, the cells were treated with sodium meta arsenite at concentrations of 5 uM, 10 uM, 20 uM and 50 uM. At 24 hours and 48 hours after treatment, the cells were collected and washed with phosphate buffered saline (PBS) solution. The washed cells were reacted with THF solution (50 mM Tris-Hcl, pH 7.5, 100 mM NaCl, 2 mM EDTA, 1% NP-40, protease inhibitor) at 4° C. for 15 minutes and then broken down or destroyed by use of an ultrasonic cell crusher before SDS (0.5%) was added. Protein from the samples was assayed by using a BCA protein kit (Thermo, 23227) before the same amount of protein (3 μg) was mixed with protein sample buffer. […] warmed up in a water bath in boiling water at 100° C. for five minutes. SDS-PAGE was conducted using a 10% polyacrylamide gel. At the end of electrophoresis, the gel was transferred to nitrocellulose membrane in semi-dry method at room temperature at 220 mA for 40 minutes. […]

[3] = tested on: β-tubulin; experiment: Western blot of total tubulin protein from HUVECs; assay type: cell-based, Human; settings: 5, 10, 20 and 50 uM, 24 and 48 hours, higher concentration
Experimental: as §1

SMILES: O=[As][O-].[Na+] [sodium meta arsenite]
- discoloration of the central part of tumors due to necrosis [1]: the tissues in the central part became discolored due to necrosis
- protein level of α-tubulin [2]: reduced the protein level
- protein level of β-tubulin [3]: reduced the protein level
